Read-outs that look alike come from different tables or passages of the source.
Assays:
[1] = tested on: Mycobacterium smegmatis 607; experiment: antimicrobial activity against Mycobacterium smegmatis 607; format: cell-based
[2] = tested on: Ehrlich ascites carcinoma cells; settings: for Mean surviving days: intraperitoneally once a day for 10 days, observed up to 50 days; for ED50: Table 3, maximum dose level at which they survive 100 to 200% of the survival days for the control; for LD50 /ED50 = Index: mouse, in vivo, ip
ICR mouse bearing cancer = tested on: ICR mouse bearing cancer
Method: Mice of ICR/JCL strain (male 5 weeks old, five for one group) are inoculated with Ehrlich ascites carcinoma cells in a dose of 2 millions/mouse.
LD50 is calculated by Behrens-Karber's method from the group poisoned at high dose levels.

solubility = format: physicochemical
[3] = tested on: Ehrlich ascites carcinoma cells; experiment: animal or person; settings: Mus musculus, ip
[4] = ICR mouse bearing cancer, daily intraperitoneal administration for 10 days
[5] = Table 3, Behrens-Karber's method, from the group poisoned at high dose levels

Molecule	antimicrobial activity (potency) [1]	Mean surviving days ([2]; 0.19 mg/kg) [days]	Mean surviving days ([2]; 0.39 mg/kg) [days]	Mean surviving days ([2]; 0.78 mg/kg) [days]	Mean surviving days ([2]; 1.56 mg/kg) [days]	Mean surviving days ([2]; 3.12 mg/kg) [days]	Mean surviving days ([2]; 6.25 mg/kg) [days]	Mean surviving days ([2]; 12.5 mg/kg) [days]	Mean surviving days ([2]; 25 mg/kg) [days]	ED50 [2]	LD50 /ED50 = Index [2]	LD50 (ICR mouse bearing cancer; [4]) [mg/kg]	LD50 (ICR mouse bearing cancer; [5])	toxicity compared with bleomycin A2 (ICR mouse bearing cancer; from LD50, ICR mouse bearing cancer, daily intraperitoneal for 10 days)	solubility in organic solvents (solubility; ethanol, propanol, butanol, ethyl acetate, ether, acetone, petroleum ether, benzene, and toluene)	solubility in water and methanol (solubility; water and methanol)	ED50 [3] [mg/kg]
CSCCCNC(=O)c1csc(-c2csc(CCNC(=O)[C@@H](NC(=O)[C@@H](C)[C@H](O)[C@@H](C)NC(=O)[C@@H](NC(=O)c3nc([C@H](CC(N)=O)NC[C@H](N)C(N)=O)nc(N)c3C)[C@@H](O[C@@H]3O[C@@H](CO)[C@@H](O)[C@H](O)[C@@H]3O[C@H]3O[C@H](CO)[C@@H](O)[C@H](OC(N)=O)[C@@H]3O)c3cnc[nH]3)[C@@H](C)O)n2)n1 [Demethylbleomycin A2, 3-(methylmercapto)propylaminobleomycin]	2,458 mcg potency/mg	20.2	24.0	31.2	28.6	34.6	49	40.5	29.0	0.78	23	22.5	18.0	decreased to about half as much	insoluble	soluble	–
3-(S,S-dimethylmercapto)propylaminobleomycin [Bleomycin A2, reference compound]	1000 mcg potency/mg	13.6	15.4	17.2	> 33	> 36	> 28.4	25	10.8	0.78	12	12.5	9.4	–	–	–	–
CO[C@@]12[C@H](COC(N)=O)C3=C(C(=O)C(C)=C(N)C3=O)N1C[C@@H]1N[C@@H]12 [Mitomycin C]	–	–	–	–	–	–	–	–	–	–	–	–	–	–	–	–	0.39

Source: patent US3960834A, “Method for preparing 3-(methylmercaptol) propylaminobleomycin” (priority 1973, dated 1976)
